Earlier results, collected in publication PMC11040670, “Mechanistic and Kinetic Insights into Cellular Uptake of Biomimetic Dinitrosyl Iron Complexes and Intracellular Delivery of NO for Activation of Cytoprotective HO-1” (JACS Au, 2024).

Legend:
[1] = design: method as in doi:10.1021/j100627a005; conditions: cited from earlier work
[2] = test system: Prx 1; design: method as in earlier work; conditions: generated [(NO)2Fe(SGS)(SCys-Prx1)]n–, phosphate buffer (pH 7.4), normoxia; ref SI 4; cited from earlier work

Molecule | pKa for the carboxylic acid group [1] | k, second-order rate constant [2]
O=C(O)CCS [HSCH2CH2COOH] | 4.3 | –
[(NO)2Fe(SGS)2]n– and [(NO)2Fe(-SGS)2Fe(NO)2]m– [DNDGIC] | – | 7.0 ± 0.4 M⁻¹ s⁻¹
